Assay results reported in article PMC5867665, “Targeting Multiple Effector Pathways in Pancreatic Ductal Adenocarcinoma with a G-Quadruplex-Binding Small Molecule” (Journal of Medicinal Chemistry, 2018).

Tests used:
Assay type in all cases: cell-based, human
PANC-1 cells = experiment: RNA-seq gene expression, PANC-1; details: for 1/2-SBSRNA4 logFC PANC-1 / A1BG logFC PANC-1 / A1BG-AS1 logFC PANC-1 / A2LD1 logFC PANC-1 / A4GALT logFC PANC-1: 300 nM gemcitabine
Description: (§1) CM03 is a potent G4 ligand, as shown by the FRET and quantitative binding experiments reported here. We therefore reasoned that the potent CM03 antiproliferative activity on PDAC cells could be mediated through a G4-targeting mechanism. To test this hypothesis, we determined whether transcriptome changes upon early CM03 treatment were correlated with G4 presence in promoters and/or gene bodies. […] The time and dose of CM03 treatment were selected to reveal initial but robust mRNA changes while minimizing chronic effects due to cell toxicity. In both cell lines, the number of genes with altered expression (as defined by >0.5 increase in Log 2 of fold change [Log2 FC], or < −0.5 decrease; false discovery rate [FDR] < 0.1) increased with duration of CM03 treatment. In PANC-1 cells 2165 genes at 6 h and 3977 genes at 24 h were seen to change, while in MIA PaCa-2 cells, 5306 genes changed at 6 h and 5477 genes at 24 h compared to untreated controls (Supporting Information, Table 1). […] To validate that the targeting of G4-containing genes is not a general feature of antiproliferative agents, we also examined the effects of the first-line therapeutic agent for PDAC, gemcitabine,[37] a potent antiproliferative DNA synthesis inhibitor whose mechanism of action is G4-independent and which remains a standard therapy option in advanced PDAC. Both cell lines were treated with a range of gemcitabine concentrations (Supporting Information, Figure 4, Table 4) for 6 or 24 h.
(§2) The PDAC cell lines PANC-1 (ATCC, catalogue no. CRL-1469) and MIA PaCa-2 (ATCC, catalogue no. CRL-142) were maintained in DMEM (ThermoFisher, catalogue no. 11965092) supplemented with 10% (v/v) heat inactivated FBS (ThermoFisher) in a humidified atmosphere containing 5% CO2 at 37 °C. Cell lines were confirmed mycoplasma free by RNA-capture ELISA, and their genotypes were certified by STR profiling.
(§3) PANC-1 (0.35 × 10^6 cells/well) and MIA PaCa-2 (1.5 × 10^6 cells/well) cell lines were seeded overnight in 60 mm plates. Next day, cells were treated with 400 nM CM03 for 6 and 24 h. For gemcitabine treatment, cells were treated for 6 and 24 h with DMSO or 30 nM, 100 nM, 300 nM, 1 μM, 3 μM, and 10 μM gemcitabine-HCL for PANC-1 cells and 30 nM, 300 nM, and 3 μM gemcitabine-HCl for MIA PaCa-2 cells. Total RNA was extracted using the Qiagen RNeasy Plus Mini Kit (ThermoFisher, catalogue no. 74134) as per the manufacturer’s instructions. RNA quality (RIN > 9.0) was checked with an Aligent 2100 bioanalyzer RNA 6000 Nano Chip, and RNA concentration was quantified using a Qubit fluorometer (ThermoFisher) and Qubit RNA HS Assay Kit (Qiagen, catalogue no. Q32852). RNA-seq libraries were then generated using the Illumina Truseq RNA HT (stranded mRNA) kit (Illumina, catalogue no. RS-122–2103) as per the manufacturer’s instructions and sequenced using an Illumina HiSeq4000.
(§4) Fastq raw sequencing files were preprocessed using cutadapt[81] to remove sequencing adapters and low quality sequencing tails (options −q 10) and then aligned to the human genome (GRCh37/hg19) using tophat2[82] and using the UCSC gtf file provided by Illumina iGenomes as an annotation file (http://support.illumina.com/sequencing/sequencing_software/igenome.html). Gene counts were calculated using htseq-count[83] and the same gtf file. Differential expression analysis was done using the R package edgeR.[84] Differentially expressed genes were estimated independently for both cell lines (MIA PaCa-2 and PANC-1) and for the different time points (6 and 24 h) and were then intersected to inspect the common genes. The sequencing data is available at the GEO public functional genomics data repository (https://www.ncbi.nlm.nih.gov/geo/) as GSE105083. Details of the putative G4 sequence (PQs) analysis are given in the Supporting Information.

[1] = tested on: MIA PaCa-2 and PANC-1 cells; experiment: RT-qPCR validation of down-regulated genes
Description: The RNA-seq results are consistent with the hypothesis that G4 ligands can alter gene expression when PQs are targets in individual genes.[23] Previously, global G4-motif specific changes in the transcriptome with bisquinolinium compounds in HeLa cells have been reported using microarray analysis.[48] However, our work represents the first comprehensive analysis using state-of-the-art RNA-seq methodology. […] The observed transcriptional effects of CM03 also align with the hypothesis that down-regulation of gene expression is mediated through ligand-stabilized G4s, causing for example steric hindrance and inhibition of RNA pol II in the transcription bubble (reviewed in ref ([23])). The observations that transcriptional effects are closely aligned in two PDAC cell lines, independently sequenced, gives added confidence to these conclusions.
MIA PaCa-2 (6 h = 2.5 × 10^6 and 24 h = 1.0 × 10^6 cells/well) and PANC-1 (6 h = 1.0 × 10^6 and 24 h = 0.5 × 10^6 cells/well) cell lines were seeded in 100 mm plates and incubated overnight. […] The concentration of harvested RNA was measured with a NanoDrop 2000/2000c spectrophotometer (ThermoFisher). […] The Ct values were normalized to the genomic mean of three housekeeping genes ACTB, GAPDH, and TUBB, and the fold change was determined using 2^–ΔΔCt.

MIA PaCa-2 cells = experiment: RNA-seq gene expression, MIA PaCa-2; details: for 1/2-SBSRNA4 logFC MIA PaCa-2 / A1BG logFC MIA PaCa-2 / A1BG-AS1 logFC MIA PaCa-2 / A2LD1 logFC MIA PaCa-2 / A4GALT logFC MIA PaCa-2: 300 nM gemcitabine
Description: as §1, §2, §3, §4

O=C1c2ccc3c4c(c(NCCN5CCCC5)cc(c24)C(=O)N1CCCN1CCOCC1)C(=O)N(CCCN1CCOCC1)C3=O [CM03, 2,7-bis(3-morpholinopropyl)-4-((2-(pyrrolidin-1-yl)ethyl)amino)benzo[lmn][3,8]phenanthroline-1,3,6,8(2H,7H)-tetraone]
number of genes with altered expression (PANC-1 cells; 400 nM CM03, 6 h, PANC-1, Log2 FC >0.5 or < −0.5, FDR < 0.1): 2165 | number of genes with altered expression (PANC-1 cells; 400 nM CM03, 24 h, PANC-1): 3977 | A1BG Log FC ([6h] vs [Control]) PANC-1 (PANC-1 cells; RNA-seq, 400 nM CM03, 6 h): -0.2704 | A1BG-AS1 Log FC ([6h] vs [Control]) PANC-1 (PANC-1 cells; RNA-seq, 400 nM CM03, 6 h): -1.747 | A2LD1 Log FC ([6h] vs [Control]) PANC-1 (PANC-1 cells; RNA-seq, 400 nM CM03, 6 h): -0.1242 | AAAS Log FC ([6h] vs [Control]) PANC-1 (PANC-1 cells; RNA-seq, 400 nM CM03, 6 h): -0.01012 | AACS logFC 6h PANC-1 (PANC-1 cells; RNA-seq, 400 nM CM03, 6 h): -0.1667 | A1BG Log FC ([24h] vs [Control]) PANC-1 (PANC-1 cells; RNA-seq, 400 nM CM03, 24 h): -0.2368 | A2LD1 Log FC ([24h] vs [Control]) PANC-1 (PANC-1 cells; RNA-seq, 400 nM CM03, 24 h): -0.09987 | AAAS Log FC ([24h] vs [Control]) PANC-1 (PANC-1 cells; RNA-seq, 400 nM CM03, 24 h): -0.5132 | AACS logFC 24h PANC-1 (PANC-1 cells; RNA-seq, 400 nM CM03, 24 h): 0.00469 | RT-qPCR expression of a small set of PDAC-pathway genes ([1]; 400 nM CM03, 6 and 24 h): transcriptionally down-regulated in both cell lines | 1/2-SBSRNA4 Log FC ([6h] vs [Control]) MIA PaCa-2 (MIA PaCa-2 cells; 400 nM CM03, 6 h): 0.2926 | A1BG Log FC ([6h] vs [Control]) MIA PaCa-2 (MIA PaCa-2 cells; 400 nM CM03, 6 h): 0.4876 | A2LD1 Log FC ([6h] vs [Control]) MIA PaCa-2 (MIA PaCa-2 cells; 400 nM CM03, 6 h): -0.3929 | AAAS Log FC ([6h] vs [Control]) MIA PaCa-2 (MIA PaCa-2 cells; 400 nM CM03, 6 h): -0.00561 | AACS LogFC 6h MIA PaCa-2 (MIA PaCa-2 cells; 400 nM CM03, 6 h): 0.2527 | 1/2-SBSRNA4 Log FC ([24h] vs [Control]) MIA PaCa-2 (MIA PaCa-2 cells; 400 nM CM03, 24 h): 0.1438 | A1BG Log FC ([24h] vs [Control]) MIA PaCa-2 (MIA PaCa-2 cells; 400 nM CM03, 24 h): -0.4265 | A2LD1 Log FC ([24h] vs [Control]) MIA PaCa-2 (MIA PaCa-2 cells; 400 nM CM03, 24 h): 0.03755 | A4GALT Log FC ([24h] vs [Control]) MIA PaCa-2 (MIA PaCa-2 cells; 400 nM CM03, 24 h): 0.6327 | AAAS Log FC ([24h] vs [Control]) MIA PaCa-2 (MIA PaCa-2 cells; 400 nM CM03, 24 h): -0.483 | AACS LogFC 24h MIA PaCa-2 (MIA PaCa-2 cells; 400 nM CM03, 24 h): -0.2395

Nc1ccn([C@@H]2O[C@H](CO)[C@@H](O)C2(F)F)c(=O)n1 [gemcitabine, reference compound]
1/2-SBSRNA4 logFC PANC-1 (PANC-1 cells; RNA-seq, 6 h): 0.2646 | A1BG logFC PANC-1 (PANC-1 cells; RNA-seq, 6 h): -0.08914 | A1BG-AS1 logFC PANC-1 (PANC-1 cells; RNA-seq, 6 h): 0.1407 | A2LD1 logFC PANC-1 (PANC-1 cells; RNA-seq, 6 h): -0.1053 | A4GALT logFC PANC-1 (PANC-1 cells; RNA-seq, 6 h): 0.005472 | 1/2-SBSRNA4 logFC PANC-1 (PANC-1 cells; RNA-seq, 24 h): 0.6908 | A1BG logFC PANC-1 (PANC-1 cells; RNA-seq, 24 h): -0.1465 | A1BG-AS1 logFC PANC-1 (PANC-1 cells; RNA-seq, 24 h): 1.012 | A2LD1 logFC PANC-1 (PANC-1 cells; RNA-seq, 24 h): -0.7315 | A4GALT logFC PANC-1 (PANC-1 cells; RNA-seq, 24 h): 0.6241 | RT-qPCR expression of a small set of PDAC-pathway genes ([1]; 400 nM gemcitabine, 6 and 24 h): not significantly affected | 1/2-SBSRNA4 logFC MIA PaCa-2 (MIA PaCa-2 cells; 6 h): -0.2087 | A1BG logFC MIA PaCa-2 (MIA PaCa-2 cells; 6 h): 0.04195 | A1BG-AS1 logFC MIA PaCa-2 (MIA PaCa-2 cells; 6 h): -0.914 | A2LD1 logFC MIA PaCa-2 (MIA PaCa-2 cells; 6 h): -0.1941 | A4GALT logFC MIA PaCa-2 (MIA PaCa-2 cells; 6 h): -0.8586 | 1/2-SBSRNA4 logFC MIA PaCa-2 (MIA PaCa-2 cells; 24 h): -0.5295 | A1BG logFC MIA PaCa-2 (MIA PaCa-2 cells; 24 h): 0.6604 | A1BG-AS1 logFC MIA PaCa-2 (MIA PaCa-2 cells; 24 h): -0.1194 | A2LD1 logFC MIA PaCa-2 (MIA PaCa-2 cells; 24 h): -0.3751 | A4GALT logFC MIA PaCa-2 (MIA PaCa-2 cells; 24 h): -0.2021
